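How tested: cells in 96-well plates exposed to compound for 48 hours at five concentrations. TGI: total growth inhibition.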
Key:
Assay in all cases: growth of human tumour cells (NCI), 48 h
[1] = tested on: SN12C renal
[2] = tested on: MOLT-4 leukemia
[3] = tested on: SR leukemia
[4] = tested on: MDA-MB-435
[5] = tested on: HCT-116 colon
[6] = tested on: KM12 colon
[7] = tested on: MDA-N
[8] = tested on: SK-OV-3 ovarian
[9] = tested on: RPMI-8226 leukemia
[10] = tested on: DU-145 prostate
[11] = tested on: MALME-3M melanoma
[12] = tested on: A498 renal
[13] = tested on: LOX IMVI melanoma
[14] = tested on: RXF 393 renal
[15] = tested on: OVCAR-5 ovarian
[16] = tested on: UACC-62 melanoma
[17] = tested on: OVCAR-4 ovarian
[18] = tested on: SK-MEL-28 melanoma
[19] = tested on: BT-549 breast
[20] = tested on: UACC-257 melanoma
[21] = tested on: SK-MEL-2 melanoma
[22] = tested on: UO-31 renal
[23] = tested on: IGROV1 ovarian
[24] = tested on: NCI-H460 lung
[25] = tested on: T-47D breast
[26] = tested on: PC-3 prostate
[27] = tested on: U251 CNS
[28] = tested on: HL-60(TB) leukemia
[29] = tested on: SK-MEL-5 melanoma
[30] = tested on: K-562 leukemia
[31] = tested on: TK-10 renal
[32] = tested on: HOP-62 NSCLC
[33] = tested on: SNB-19 CNS
[34] = tested on: COLO 205 colon
[35] = tested on: SNB-75 CNS
[36] = tested on: 786-0 renal
[37] = tested on: HT29 colon
[38] = tested on: SF-268 CNS
[39] = tested on: A549 NSCLC
[40] = tested on: MDA-MB-231 breast
[41] = tested on: ACHN renal
[42] = tested on: SW-620 colon
[43] = tested on: SF-539 CNS
[44] = tested on: NCI/ADR-RES ovarian
[45] = tested on: SF-295 CNS
[46] = tested on: M14 melanoma
[47] = tested on: OVCAR-3 ovarian
[48] = tested on: HCT-15 colon
[49] = tested on: NCI-H522 lung
[50] = tested on: HS 578T breast
[51] = tested on: MCF7 breast
[52] = tested on: EKVX NSCLC
[53] = tested on: CAKI-1 renal
[54] = tested on: OVCAR-8 ovarian
[55] = tested on: NCI-H23 lung
[56] = tested on: CCRF-CEM leukemia
[57] = tested on: NCI-H226 lung

C/C(=N\Nc1nc2ccccc2o1)c1ccc2ccccc2n1
TGI [1]: 56.8 µM
TGI [2]: > 100 µM
TGI [3]: 3.72 µM
TGI [4]: > 100 µM
TGI [5]: 20.1 µM
TGI [6]: > 100 µM
TGI [7]: > 100 µM
TGI [8]: > 100 µM
TGI [9]: 6.41 µM
TGI [10]: 37.3 µM
TGI [11]: 52.5 µM
TGI [12]: 8.64 µM
TGI [13]: > 100 µM
TGI [14]: 57.5 µM
TGI [15]: > 100 µM
TGI [16]: 44.4 µM
TGI [17]: 5.59 µM
TGI [18]: > 100 µM
TGI [19]: > 100 µM
TGI [20]: > 100 µM
TGI [21]: 15.2 µM
TGI [22]: 14.4 µM
TGI [23]: 5.32 µM
TGI [24]: 30.6 µM
TGI [25]: 3.87 µM
TGI [26]: 4.94 µM
TGI [27]: 87.2 µM
TGI [28]: 6.47 µM
TGI [29]: 14.3 µM
TGI [30]: > 100 µM
TGI [31]: 68.5 µM
TGI [32]: 58.7 µM
TGI [33]: > 100 µM
TGI [34]: > 100 µM
TGI [35]: 28 µM
TGI [36]: 45.7 µM
TGI [37]: 95.9 µM
TGI [38]: 49.2 µM
TGI [39]: > 100 µM
TGI [40]: > 100 µM
TGI [41]: 10.6 µM
TGI [42]: > 100 µM
TGI [43]: > 100 µM
TGI [44]: 26.5 µM
TGI [45]: 56.5 µM
TGI [46]: > 100 µM
TGI [47]: 3.03 µM
TGI [48]: 59.9 µM
TGI [49]: 5.83 µM
TGI [50]: > 100 µM
TGI [51]: > 100 µM
TGI [52]: 9.23 µM
TGI [53]: 3.93 µM
TGI [54]: 63.5 µM
TGI [55]: 70.7 µM
TGI [56]: 5.77 µM

S=C1Nc2cnc3ccccc3c2SC1c1ccccc1 (stereo not drawn)
TGI [1]: > 100 µM
TGI [2]: > 100 µM
TGI [3]: > 100 µM
TGI [4]: > 100 µM
TGI [5]: > 100 µM
TGI [6]: > 100 µM
TGI [57]: > 100 µM
TGI [7]: > 100 µM
TGI [8]: > 100 µM
TGI [9]: > 100 µM
TGI [10]: > 100 µM
TGI [11]: > 100 µM
TGI [13]: > 100 µM
TGI [14]: 99.4 µM
TGI [15]: > 100 µM
TGI [16]: > 100 µM
TGI [17]: > 100 µM
TGI [18]: > 100 µM
TGI [19]: > 100 µM
TGI [20]: > 100 µM
TGI [22]: > 100 µM
TGI [23]: > 100 µM
TGI [24]: > 100 µM
TGI [25]: > 100 µM
TGI [26]: > 100 µM
TGI [27]: > 100 µM
TGI [28]: > 100 µM
TGI [29]: > 100 µM
TGI [30]: > 100 µM
TGI [31]: > 100 µM
TGI [32]: > 100 µM
TGI [33]: > 100 µM
TGI [34]: > 100 µM
TGI [35]: > 100 µM
TGI [36]: > 100 µM
TGI [37]: > 100 µM
TGI [38]: > 100 µM
TGI [39]: > 100 µM
TGI [40]: > 100 µM
TGI [41]: > 100 µM
TGI [44]: > 100 µM
TGI [45]: > 100 µM
TGI [46]: > 100 µM
TGI [47]: > 100 µM
TGI [48]: > 100 µM
TGI [49]: > 100 µM
TGI [50]: > 100 µM
TGI [51]: > 100 µM
TGI [52]: > 100 µM
TGI [53]: > 100 µM
TGI [54]: > 100 µM
TGI [55]: > 100 µM

Reference: PubChem BioAssay (NCI)
